Measurements taken from ChEMBL document CHEMBL3861944 (Medchemcomm, 2016).

Assays:
[1] = Antioxidant activity assessed as DPPH free radical scavenging activity incubated for 30 mins in dark; type: functional
[2] = Cell cycle arrest in human THP1 cells assessed as accumulation at S phase after 24 hrs by flow cytometric method; type: functional, cell-based; details: THP-1
[3] = Cell cycle arrest in human AsPC1 cells assessed as accumulation at S phase at 100 uM after 24 hrs by flow cytometric method (reference value: 23 +/- 3%); type: functional, cell-based
THP-1 [4] = assay: Pro-apoptotic activity in human THP1 cells assessed as late apoptotic cells at 3 uM after 24 hrs by annexin V/propidium iodide staining-based flow cytometric method (reference value: 0.4 +/- 0.1%); type: functional
[5] = Cell cycle arrest in human AsPC1 cells assessed as accumulation at S phase at 10 uM after 24 hrs by flow cytometric method (reference value: 23 +/- 3%); type: functional, cell-based
[6] = Cell cycle arrest in human THP1 cells assessed as accumulation at G2/M phase at 1 uM after 24 hrs by flow cytometric method (reference value: 32 +/- 1%); type: functional, cell-based; details: THP-1
THP-1 [7] = assay: Pro-apoptotic activity in human THP1 cells assessed as early apoptotic cells at 0.75 uM after 24 hrs by annexin V/propidium iodide staining-based flow cytometric method (reference value: 0.4 +/- 0.1%); type: functional
ASPC1 [8] = assay: Pro-apoptotic activity in human AsPC1 cells assessed as early apoptotic cells at 10 uM after 24 hrs by annexin V/propidium iodide staining-based flow cytometric method (reference value: 0.8 +/- 0.1%); type: functional
[9] = Cell cycle arrest in human AsPC1 cells assessed as accumulation at S phase at 50 uM after 24 hrs by flow cytometric method (reference value: 23 +/- 3%); type: functional, cell-based
THP-1 [10] = assay: Pro-apoptotic activity in human THP1 cells assessed as late apoptotic cells at 10 uM after 24 hrs by annexin V/propidium iodide staining-based flow cytometric method (reference value: 0.4 +/- 0.1%); type: functional
ASPC1 [11] = assay: Induction of pro-differentiation of human AsPC1 cells assessed as CD44 expression at 10 uM after 3 days by immunostaining-based micro-capillary flow cytometric method (reference value: 87 +/- 1%); type: functional
THP-1 [12] = assay: Pro-apoptotic activity in human THP1 cells assessed as late apoptotic cells at 0.5 uM after 24 hrs by annexin V/propidium iodide staining-based flow cytometric method (reference value: 0.4 +/- 0.1%); type: functional
THP-1 [13] = assay: Pro-apoptotic activity in human THP1 cells assessed as late apoptotic cells at 30 uM after 24 hrs by annexin V/propidium iodide staining-based flow cytometric method (reference value: 0.4 +/- 0.1%); type: functional
THP-1 [14] = assay: Pro-apoptotic activity in human THP1 cells assessed as early apoptotic cells at 3 uM after 24 hrs by annexin V/propidium iodide staining-based flow cytometric method (reference value: 0.4 +/- 0.1%); type: functional
ASPC1 [15] = assay: Induction of pro-differentiation of human AsPC1 cells assessed as CD44 expression at 1 uM after 3 days by immunostaining-based micro-capillary flow cytometric method (reference value: 87 +/- 1%); type: functional
THP-1 [16] = assay: Pro-apoptotic activity in human THP1 cells assessed as early apoptotic cells at 10 uM after 24 hrs by annexin V/propidium iodide staining-based flow cytometric method (reference value: 0.4 +/- 0.1%); type: functional
[17] = Cell cycle arrest in human THP1 cells assessed as accumulation at G0/G1 phase at 10 uM after 24 hrs by flow cytometric method (reference value: 51 +/- 6%); type: functional, cell-based; details: THP-1
[18] = Cell cycle arrest in human AsPC1 cells assessed as accumulation at G2/M phase at 50 uM after 24 hrs by flow cytometric method (reference value: 29 +/- 5%); type: functional, cell-based
ASPC1 [19] = assay: Pro-apoptotic activity in human AsPC1 cells assessed as late apoptotic cells at 100 uM after 24 hrs by annexin V/propidium iodide staining-based flow cytometric method (reference value: 0.8 +/- 0.1%); type: functional
[20] = Cell cycle arrest in human AsPC1 cells assessed as accumulation at G0/G1 phase at 75 uM after 24 hrs by flow cytometric method (reference value: 48 +/- 7%); type: functional, cell-based
[21] = Cell cycle arrest in human AsPC1 cells assessed as accumulation at G0/G1 phase at 100 uM after 24 hrs by flow cytometric method (reference value: 48 +/- 7%); type: functional, cell-based
[22] = Cell cycle arrest in human AsPC1 cells assessed as accumulation at G0/G1 phase at 30 uM after 24 hrs by flow cytometric method (reference value: 48 +/- 7%); type: functional, cell-based
ASPC1 [23] = assay: Pro-apoptotic activity in human AsPC1 cells assessed as early apoptotic cells at 1 uM after 24 hrs by annexin V/propidium iodide staining-based flow cytometric method (reference value: 0.8 +/- 0.1%); type: functional
[24] = Cell cycle arrest in human AsPC1 cells assessed as accumulation at G2/M phase at 1 uM after 24 hrs by flow cytometric method (reference value: 29 +/- 5%); type: functional, cell-based
THP-1 [25] = assay: Pro-apoptotic activity in human THP1 cells assessed as early apoptotic cells at 30 uM after 24 hrs by annexin V/propidium iodide staining-based flow cytometric method (reference value: 0.4 +/- 0.1%); type: functional
[26] = Cell cycle arrest in human THP1 cells assessed as decrease in cell levels at G0/G1 phase after 24 hrs by flow cytometric method; type: functional, cell-based; details: THP-1
ASPC1 [27] = assay: Pro-apoptotic activity in human AsPC1 cells assessed as early apoptotic cells at 100 uM after 24 hrs by annexin V/propidium iodide staining-based flow cytometric method (reference value: 0.8 +/- 0.1%); type: functional
[28] = Cell cycle arrest in human AsPC1 cells assessed as accumulation at S phase at 30 uM after 24 hrs by flow cytometric method (reference value: 23 +/- 3%); type: functional, cell-based
[29] = Cell cycle arrest in human THP1 cells assessed as accumulation at S phase at 10 uM after 24 hrs by flow cytometric method (reference value: 16 +/- 2%); type: functional, cell-based; details: THP-1
[30] = Cell cycle arrest in human THP1 cells assessed as accumulation at S phase at 0.75 uM after 24 hrs by flow cytometric method (reference value: 16 +/- 2%); type: functional, cell-based; details: THP-1
ASPC1 [31] = assay: Pro-apoptotic activity in human AsPC1 cells assessed as necrotic cells at 75 uM after 24 hrs by annexin V/propidium iodide staining-based flow cytometric method (reference value: 2.1 +/- 0.4%); type: functional
[32] = Cell cycle arrest in human THP1 cells assessed as accumulation at G0/G1 phase at 0.75 uM after 24 hrs by flow cytometric method (reference value: 51 +/- 6%); type: functional, cell-based; details: THP-1
[33] = Cell cycle arrest in human AsPC1 cells assessed as accumulation at S phase at 75 uM after 24 hrs by flow cytometric method (reference value: 23 +/- 3%); type: functional, cell-based
ASPC1 [34] = assay: Pro-apoptotic activity in human AsPC1 cells assessed as necrotic cells at 50 uM after 24 hrs by annexin V/propidium iodide staining-based flow cytometric method (reference value: 2.1 +/- 0.4%); type: functional
[35] = Cell cycle arrest in human THP1 cells assessed as accumulation at G2/M phase at 3 uM after 24 hrs by flow cytometric method (reference value: 32 +/- 1%); type: functional, cell-based; details: THP-1
THP-1 [36] = assay: Pro-apoptotic activity in human THP1 cells assessed as late apoptotic cells at 0.75 uM after 24 hrs by annexin V/propidium iodide staining-based flow cytometric method (reference value: 0.4 +/- 0.1%); type: functional

## NC(=[Se])N/N=C/c1cccc2cccnc12
[1]
  IC50: 12.5 µM
[2]
  Activity: Dose-dependent effect
[3]
  Activity: 18.8%
THP-1 [4]
  Activity: 3%
[5]
  Activity: 21.3%
[6]
  Activity: 31%
THP-1 [7]
  Activity: 1.1%
ASPC1 [8]
  Activity: 0.4%
[9]
  Activity: 26%
THP-1 [10]
  Activity: 49%
ASPC1 [11]
  Activity: 77%
THP-1 [12]
  Activity: 2%
THP-1 [13]
  Activity: 46%
THP-1 [14]
  Activity: 2.2%
ASPC1 [15]
  Activity: 53%
THP-1 [16]
  Activity: 6%
[17]
  Activity: 45%
[18]
  Activity: 8.6%
ASPC1 [19]
  Activity: 26.5%
[20]
  Activity: 63.3%
[21]
  Activity: 64.1%
[22]
  Activity: 69.2%
ASPC1 [23]
  Activity: 0.2%
[24]
  Activity: 10.6%
THP-1 [25]
  Activity: 8%
[26]
  Activity: Dose-dependent effect
ASPC1 [27]
  Activity: 5.7%
[28]
  Activity: 22.5%
[29]
  Activity: 27%
[30]
  Activity: 21%
ASPC1 [31]
  Activity: 4.1%
[32]
  Activity: 44%
[33]
  Activity: 22.3%
ASPC1 [34]
  Activity: 1.7%
[35]
  Activity: 30%
THP-1 [36]
  Activity: 2.4%
